# “Also recorded” adds a separate entry of the source.
# How the values were obtained:
# [1] = Rotorod test for drug induced neurological deficit (neurotoxicity), ip; type: in vivo, male Carworth Farms no. 1 mice; conditions: for Rotorod: effective or [maximum ineffective] intraperitoneal dose: neurotoxicity, 30 min or 4 hr, 30, 100, 300 mg/kg, bracketed = maximum ineffective dose (given as >), unbracketed = effective (neurotoxic) dose (=)
# Method: (§1) Biological Testing--Compounds were screened for anticonvulsant activity in male Carworth Farms no. 1 mice. The maximal electroshock (MES), subcutaneous Metrazol (pentylenetetrazole) (Met), and threshold tonic extension (TTE) tests were used to evaluate compounds for anticonvulsive activity. A rotorod protocol was used to determine neurotoxicity. Solutions for injection were prepared in 30% polyethylene glycol 400. Except for the TTE tests, animals were dosed ip at two different time periods: either 30 min. or 4 hr prior to testing. At each time period, three groups of four mice were tested at the following dose levels: 30, 100, and 300 mg/kg. This treatment protocol was followed for MES, Met, and rotorod testing.
# Animals were tested for drug induced neurological deficit using a rotorod. Either 30 min. or 4 hr after treatment, the animal was placed on a 1-inch diameter knurled plastic rod rotating at 6 rpm. Neurological deficit was defined as the failure of the animal to remain on the rod for 1 min.
# [2] = molecular target: T1, glycine binding site on the NMDA receptor (Rattus norvegicus, UniProt P35439); test: Inhibition of [^3 H]-5,7-dichlorokynurenic acid specific binding; type: rat (cerebral cortex membranes); conditions: for Inhibition of [^3 H]-5,7-Dichlorokynurenic Acid Binding, % of Control: 10 uM test compound, 15 min, 10 µM; for Inhibition of [^3 H]-5,7-Dichlorokynurenic Acid Binding, % of Control / remaining activity at 10 µM: 10 nM radioligand, pH 7.4, mean ± SEM of three determinations; for remaining activity at 10 µM: 0.25 h, pH 7.4, 10 uM test compound, read-out: Inhibition of [^3 H]-5,7-Dichlorokynurenic Acid Binding, % of Control; for [^3 H]-5,7-dichlorokynurenic acid displacement: 10 uM
# T1 construct: Membranes were prepared from rat cerebral cortex; from tissue; host or cells: rat cerebral cortex, "buffy coat" membrane fragments
# Method: Binding Studies--The procedure of Baron et al. (1991) was used to assay for the inhibition of specific binding at the glycine binding site on the NMDA receptor. The labeled ligand used in this assay was [^3 H]-5,7-dichlorokynurenic acid (15.8 Ci/mmol) from DuPont-New England Nuclear (Boston, Mass.). […] Inhibition of specific binding was determined for selected compounds at a concentration of 10 uM using "buffy coat" membrane fragments (Jones et al., 1989). Membranes were prepared from rat cerebral cortex and assays were conducted in 50 mM HEPES-KOH buffer (Sigma, St. Louis, Mo.) at pH 7.4. Membranes were incubated in a final volume of 1 mL containing 10 nM [^3 H]-5,7-dichlorokynurenic acid. Incubation was continued for 15 min. at 4° C. Nonspecific binding was determined in the presence of 1 mM glycine and subtracted. Binding was terminated by centrifugation at 48,000×g for 10 min. Each of the resultant pellets was washed rapidly with 1 mL ice water and solubilized with 1 mL of a tissue solubilizer (Solvable, DuPont NEN). The solubilized samples were each dissolved in 10 mL 3a70B Complete Counting Cocktail (RPI, Mount Prospect, Ill.). Membrane bound radioactivity was determined using a Beckman LS-5000TD liquid scintillation counter. This screening procedure was conducted in triplicate in three separate tests. Results are presented as percent of control (±SEM, standard error of the mean).
# [3] = tested on: TTE seizure; test: Threshold tonic extension (TTE) test, ip; type: in vivo, male Carworth Farms no. 1 mice; conditions: for minimal effective dose at 100 mg/kg: ip 100 mg/kg, 1/4 to 4 hr post treatment, 12.5 mA, bracketed = maximum ineffective dose (given as >), unbracketed = effective dose (=), read-out: TTE: effective or [maximum ineffective] intraperitoneal dose
# Method: as §1
# The threshold tonic extension (TTE) test is similar to the MES screen but uses a lower level of electrical current (Piredda et al., 1985). The lower current makes the test more sensitive but less discriminate than the MES screen. Twenty mice were pretreated ip with 100 mg/kg of the test compound. At time intervals of 1/4, 1/2, 1, 2, and 4 hr post treatment, 4 mice were challenged with 12.5 mA of electrical current for 0.2 sec. via corneal electrodes. This current produces a TTE seizure in untreated animals. Protection was defined as an absence of seizures. Additional TTE testing was conducted on compound 10 to determine the ED50 value for the observed protective effect. In this case, 6 groups containing either 8 or 16 animals were injected ip and tested two hours following treatment. Each group received a specified dose ranging from 20-500 mg/kg. An ED50 value was determined from a log dose-response plot of the resulting data.
# [4] = Overall in vivo activity (MES, Met, TTE, rotorod); parameters: species or system male Carworth Farms no. 1 mice; conditions: ip
# Method: as §1
# Maximal electroshock (MES) induced seizures were elicited with a 60 cycle alternating current of 50 mA intensity (five to seven times the intensity necessary to evoke minimal electroshock threshold seizures). Current was delivered via corneal electrodes for 0.2 sec. A drop of 0.9% saline was instilled in the eye prior to application of the electrodes. Abolition of the hindlimb tonic extension component of the seizure was defined as protection. […]
# The threshold tonic extension (TTE) test is similar to the MES screen but uses a lower level of electrical current (Piredda et al., 1985). […] An ED50 value was determined from a log dose-response plot of the resulting data. […]
# [5] = tested on: GABA-A neuroreceptor; test: [^3 H]-muscimol competition binding; type: rat (cerebral cortex membranes); conditions: 5 nM [^3 H]-muscimol, compound 10 uM to 10 nM
# Method: Compound 10 was screened for activity at the GABA-A neuroreceptor complex using [^3 H]-muscimol (20.0 Ci/mmol), also from DuPont-New England Nuclear. The filtration method reported by Williams and Risley (1979) was used for this assay. Membranes were initially prepared as described previously and frozen at -20° C. in distilled water for 24 hr. After thawing, membranes were resuspended in 50 mM Tris-acetate buffer (pH 7.0) which contained 0.1% (v/v) saponin (Sigma). The tissue was centrifuged at 48,000×g for 20 min. and the resulting pellet was resuspended in 30 volumes of 50 mM Tris-acetate buffer (pH 7.0) containing 100 mM KCI. The tissue was again centrifuged at 48,000×g for 20 min. After decanting the supernatant, the pellet was covered with fresh KCI containing Tris-acetate buffer and frozen for 24 hr.
# On the day of the assay, the tissue was thawed and resuspended in 30 volumes of 50 mM Trisacetate (pH 7.0) with 100 mM KCI and centrifuged at 48,000×g for 20 min. This washing procedure was repeated twice. The final pellet was resuspended in 32 mL buffer. Membranes were incubated in a final volume of 1 mL with 5 nM [^3 H]-muscimol at 4° C. for 30 min. Samples were run in triplicate employing six different concentrations of compound 10 ranging from 10 uM to 10 nM. The assay was performed in duplicate. Each sample, including controls, contained 1.0% dimethyl sulfoxide (DMSO) to insure solubilization of the test compound. Nonspecific binding was determined in the presence of 200 uM gamma-aminobutyric acid (GABA) and subtracted. Binding was terminated using a Brandel M-24C cell harvester employing rapid filtration through GF/C glass fiber filters presoaked in 0.1% (v/v) polyethylenimine. Filters were washed with 1 mL cold water. Radioactivity bound to the filters was determined by scintillation counting.
# [6] = tested on: NMDA-associated PCP binding site; test: [^3 H]-TCP binding displacement; type: rat (cerebral cortex membranes)
# Method: Compound 10 was also screened for activity at the NMDA-associated PCP binding site, and, additionally, for activity at the GABA-A neuroreceptor. To determine possible effects on PCP binding, N-(1-(2-thienyl)cyclohexyl)-3,4-[^3 H]-piperidine ("[^3 H]-TCP") binding was assayed using the technique of Johnson et al. (1988). TCP is the thienyl derivative of PCP. Binding of [^3 H]-TCP to the NMDA receptor complex can be modulated by glycine agonists and antagonists (Benavides et al., 1988). DuPont-New England Nuclear was the source for [^3 H]-TCP (44.5 Ci/mmol). Membranes were prepared as described above. Assays were conducted in 5 mM Tris-acetate (pH 7.4) buffer containing 10 uM L-glutamic acid and 3 uM glycine. […] Nonspecific binding was determined in the presence of 30 uM PCP and subtracted. Samples were incubated at 24° C. for 1 hr. Binding was terminated using a Brandel M-24C cell harvester employing rapid filtration through GF/C glass filters presoaked in 0.1%(v/v)polyethylenimine. Filters were washed rapidly with two 1 mL aliquots of ice-cold water. Samples were run in triplicate at six different drug concentrations ranging from 1 uM to 5 nM. The experiment was repeated with buffer containing 0.1 mM L-glu and no added glycine. Two separate assays were conducted for each experiment.
Compound,Rotorod: effective or [maximum ineffective] intraperitoneal dose [1] [mg/kg],"Inhibition of [^3 H]-5,7-Dichlorokynurenic Acid Binding, % of Control [2]",remaining activity at 10 µM [2] [%],minimal effective dose at 100 mg/kg ([3]; Mus musculus) [mg/kg],other results
O=C(O)c1cc(NC(=O)N(c2ccccc2)c2ccccc2)c2c(Cl)cc(Cl)cc2n1 [Compound 9],> 300,20-30 % of Control,25 ± 5,100,–
CCN(CC)C(=O)Nc1cc(C(=O)O)nc2cc(Cl)cc(Cl)c12 [Compound 3],300,–,–,> 100,neurotoxicity in rotorod test [1]: neurotoxic
CCCCN(CCCC)C(=O)Nc1cc(C(=O)O)nc2cc(Cl)cc(Cl)c12 [Compound 7],> 300,20-30 % of Control,20 ± 11,100,–
CCOC(=O)c1cc(NC(=O)N(C)C)c2c(Cl)cc(Cl)cc2n1 [Compound 4],> 300,–,57 ± 1,> 100,"[^3 H]-5,7-dichlorokynurenic acid displacement [2]: active; in vivo / CNS anticonvulsant activity [4]: no in vivo activity; also recorded: no CNS activity; also recorded: did not have any in vivo effects"
CCOC(=O)c1cc(NC(=O)N(CC)CC)c2c(Cl)cc(Cl)cc2n1 [Compound 2],> 300,–,–,100,–
"COC(=O)c1cc(NC(=O)N(c2ccccc2)c2ccccc2)c2c(Cl)cc(Cl)cc2n1 [Compound 10, 2-methyl carboxylate-5,7-dichloro-4-[[(diphenylamino)-carbonyl]amino]-quinoline]",> 300,42 % of Control,42 ± 7,100,"effect on [^3 H]-muscimol binding (GABA-A) [5]: No significant difference from control; also recorded: no effect; also recorded: No significant effects were observed; effect on [^3 H]-muscimol binding (GABA-A) ([5]; listed as 2-methyl carboxylate-5,7-dichloro4-[[(diphenylamino)-carbonyl]amino]-quinoline): tested negative; effect on [^3 H]-muscimol binding (GABA-A) ([5]; listed as 2-methyl carboxylate-5,7-dichloro-4-[[(diphenylamino)-carbonyl]amino]-quinoline): No significant effects were observed; ED50 ([3]; Mus musculus, 2 h, ip, two hours following treatment, doses 20-500 mg/kg): 134 mg/kg; S.E. of slope of TTE dose-response ([3]; log dose-response plot, ip): 0.44; slope of TTE dose-response ([3]; log dose-response plot, ip): 1.9; effect on [^3 H]-TCP binding ([6]; 10 uM L-glutamic acid and 3 uM glycine, compound 1 uM to 5 nM): No significant effect; effect on [^3 H]-TCP binding ([6]; 10 uM L-glutamic acid and 3 uM glycine, compound 1 uM to 5 nM, listed as 2-methyl carboxylate-5,7-dichloro-4-[[(diphenylamino)-carbonyl]amino]-quinoline): No significant effect; effect on [^3 H]-TCP binding ([6]; L-glutamate, no added glycine, compound 5 uM to 10 nM): no significant effect; PCP activity at the NMDA receptor ([6]; summary statement): tested negative"
CCCCN(CCCC)C(=O)Nc1cc(C(=O)OCC)nc2cc(Cl)cc(Cl)c12 [Compound 6],> 300,–,76 ± 6,100,–
CCN(CC)C(=O)Nc1cc(C(=O)OC)nc2cc(Cl)cc(Cl)c12 [Compound 1],> 300,–,58 ± 8,–,"[^3 H]-5,7-dichlorokynurenic acid displacement [2]: active; in vivo / CNS anticonvulsant activity [4]: no in vivo activity; also recorded: no CNS activity; also recorded: did not have any in vivo effects"
CCOC(=O)c1cc(NC(=O)N(c2ccccc2)c2ccccc2)c2c(Cl)cc(Cl)cc2n1 [Compound 8],> 300,–,77 ± 7,100,–
CCOC(=O)c1cc(NC(=O)N(c2ccccc2)c2cccc(OC)c2)c2c(Cl)cc(Cl)cc2n1 [Compound 11],> 300,–,–,100,"TTE anticonvulsant activity ([3]; ip, 100 mg/kg): active"

# Source: patent US5783700A, “Quinolic acid derivatives” (priority 1997, dated 1998)
